Results on eleven compounds are retold here after ChEMBL document CHEMBL1154800, “TDAE-assisted synthesis of new imidazo[2,1-b]thiazole derivatives as anti-infectious agents” (2010).

A word on the MIC: it is the smallest concentration in the dilution series that meets the test's criterion for growth inhibition. Low values mean greater potency, high ones weaker potency.

Converted amounts (≈) assume the structure as drawn. The source made the active and inactive calls.

Assay [1] relates to Candida albicans. In words: Antimicrobial activity against Candida albicans ATCC 2091 after 48 hrs by microplate assay. Format: functional. The conditions noted are these: ATCC 2091, 48 h.
In assay [2] the test system is Candida tropicalis. The experiment in a line: Antimicrobial activity against Candida tropicalis IP 2031 after 48 hrs by microplate assay. Format: functional. The following applies: IP 2031, 48 h.
For assay [3], the system named is Nakaseomyces glabratus. In words: Antimicrobial activity against Candida glabrata ATCC 90030 after 48 hrs by microplate assay. The following applies: ATCC 90030, 48 h. Format: functional.
The subject of assay [4] is Pichia kudriavzevii. In words: Antimicrobial activity against Candida krusei ATCC 6258 after 48 hrs by microplate assay. The conditions noted are these: ATCC 6258, 48 h. It is filed as functional.
Assay [5] relates to Candida albicans. In words: Antimicrobial activity against Candida albicans ATCC 2091 by disk diffusion method. It is filed as functional. (In general: In agar diffusion tests the substance spreads into inoculated agar from a disc or well.)
Assay [6] deals with Candida tropicalis. The experiment in a line: Antimicrobial activity against Candida tropicalis IP 2031 by disk diffusion method. Format: functional.
Assay [7] deals with Nakaseomyces glabratus. In words: Antimicrobial activity against Candida glabrata ATCC 90030 by disk diffusion method. It is filed as functional.
Assay [8] relates to Pichia kudriavzevii. The experiment in a line: Antimicrobial activity against Candida krusei ATCC 6258 by disk diffusion method. Format: functional.
Assay [9] relates to Pichia kudriavzevii. The experiment in a line: Antimicrobial activity against Candida krusei ATCC 6258 assessed as minimum microbial concentration after 48 hrs by microplate assay. It is filed as functional.
For assay [10], the system named is Nakaseomyces glabratus. The experiment in a line: Antimicrobial activity against Candida glabrata ATCC 90030 assessed as minimum microbial concentration after 48 hrs by microplate assay. Format: functional.
The subject of assay [11] is Candida tropicalis. In words: Antimicrobial activity against Candida tropicalis IP 2031 assessed as minimum microbial concentration after 24 hrs by microplate assay. Format: functional.
Assay [12] deals with Candida albicans. In words: Antimicrobial activity against Candida albicans ATCC 2091 assessed as minimum microbial concentration after 24 hrs by microplate assay. Format: functional.
The test system of assay [13] is Staphylococcus aureus. In words: Antimicrobial activity against Staphylococcus aureus ATCC 6538 assessed as minimum microbial concentration after 24 hrs by microplate assay. It is filed as functional.
The subject of assay [14] is Escherichia coli. The experiment in a line: Antimicrobial activity against Escherichia coli ATCC 10536 after 24 hrs assessed as minimum microbial concentration by microplate assay. Format: functional.
In assay [15] the test system is Escherichia coli. In words: Antimicrobial activity against Escherichia coli ATCC 10536 after 24 hrs by microplate assay. Format: functional.
Assay [16] has as its system Staphylococcus aureus. In words: Antimicrobial activity against Staphylococcus aureus ATCC 6538 after 24 hrs by microplate assay. It is filed as functional.
In assay [17] the test system is Escherichia coli. The experiment in a line: Antimicrobial activity against Escherichia coli ATCC 10536 by disk diffusion method. Format: functional.
The subject of assay [18] is Pseudomonas aeruginosa. In words: Antimicrobial activity against Pseudomonas aeruginosa ATCC 15442 by disk diffusion method. Format: functional.
Assay [19] relates to Staphylococcus aureus. In words: Antimicrobial activity against Staphylococcus aureus ATCC 6538 by disk diffusion method. It is filed as functional.
In assay [20] the test system is Enterococcus hirae. The experiment in a line: Antimicrobial activity against Enterococcus hirae ATCC 10541 by disk diffusion method. It is filed as functional.
Assay [21] relates to Pseudomonas aeruginosa. The experiment in a line: Antimicrobial activity against Pseudomonas aeruginosa ATCC 15442 after 24 hrs by microplate assay. It is filed as functional, organism-based.
Assay [22] deals with Enterococcus hirae. The experiment in a line: Antimicrobial activity against Enterococcus hirae ATCC 10541 after 24 hrs by microplate assay. Format: functional, organism-based.

For the compound `C[C@@H]1[C@H](O)[C@@H](C)/C=C/C=C/C=C/C=C/C=C/C=C/C=C/[C@H](O[C@@H]2O[C@H](C)[C@@H](O)[C@H](N)[C@@H]2O)C[C@@H]2O[C@](O)(C[C@@H](O)C[C@@H](O)[C@H](O)CC[C@@H](O)C[C@@H](O)CC(=O)O[C@H]1C)C[C@H](O)[C@H]2C(=O)O` [AMPHOTERICIN B], the MIC amounted to 0.16 µg/mL (≈ 0.173 µM) in assay [1], 12.5 µg/mL (≈ 13.5 µM) in assay [2], 0.31 µg/mL (≈ 0.335 µM) in [3] and 0.62 µg/mL (≈ 0.671 µM) in [4]. Moreover, the “diameter of the inhibition zone (DIZ)” value in assay [5] turned out to be 22 mm; in assay [6], 8 mm; in assay [7] it was 22 mm; in assay [8] it was 18 mm.

For the compound `O=[N+]([O-])c1c(CCl)nc2sccn12`, the Activity came out at 62.5 µg/mL in [9]; 62.5 µg/mL in assay [10]; 15.6 µg/mL in [11]; 62.5 µg/mL in assay [12]; 250 µg/mL in assay [13]; 250 µg/mL in assay [14]. Besides, the MIC in assay [15] (ATCC 10536, 24 h) worked out at 125 µg/mL (≈ 574 µM); in assay [16] (ATCC 6538, 24 h) it was 125 µg/mL (≈ 574 µM); in [1], 62.5 µg/mL (≈ 287 µM); in assay [2], 15.6 µg/mL (≈ 71.7 µM); in [3], 62.5 µg/mL (≈ 287 µM); in [4] it was 62.5 µg/mL (≈ 287 µM). Moreover, the “diameter of the inhibition zone (DIZ)” value was 14 mm in assay [17]; 11 mm in [18]; 18 mm in assay [19]; 11 mm in [20]; 16 mm in [5]; 25 mm in assay [6]. For the same compound, the “diameter of the inhibition zone (DIZ)” value amounted to 18 mm in assay [7] and 20 mm in assay [8].

Regarding `Cc1nc2sccn2c1[N+](=O)[O-]`, the MIC in assay [1] is more than 500 µg/mL; in [2] it was 31.2 µg/mL (≈ 170 µM); in assay [3] it was more than 500 µg/mL; in assay [4], more than 500 µg/mL. Also, the “diameter of the inhibition zone (DIZ)” value in assay [17], in [18], in [19], in assay [20], in assay [5] and in assay [7] was “inactive” in each case. The “diameter of the inhibition zone (DIZ)” value in [8] is “inactive”. In addition, the “diameter of the inhibition zone (DIZ)” value in [6] came to 8 mm.

`O=[N+]([O-])c1c(CBr)nc2sccn12`: the Activity in assay [9] worked out at 62.5 µg/mL; in [10], 250 µg/mL; in assay [11] it was 15.6 µg/mL; in assay [12] it was 125 µg/mL; in [13] it was 250 µg/mL. The MIC in assay [16] (ATCC 6538, 24 h) amounted to 125 µg/mL (≈ 477 µM); in assay [1] it was 125 µg/mL (≈ 477 µM); in [2], 15.6 µg/mL (≈ 59.5 µM); in assay [3], 125 µg/mL (≈ 477 µM); in [4], 62.5 µg/mL (≈ 238 µM). Moreover, the “diameter of the inhibition zone (DIZ)” value in assay [17] came out at 9 mm; in assay [18] it was 11 mm; in assay [19], 18 mm; in [20], 11 mm; in assay [5], 17 mm; in assay [6], 29 mm. The results for the “diameter of the inhibition zone (DIZ)” value in assay [7] and in assay [8] were 20 mm and 23 mm, respectively.

With GENTAMICIN, the MIC in assay [21] came out at 8.12 µg/mL; in [22] it was 25 µg/mL. Besides, the inhibition zone (IZ) is 19 mm in assay [17], 19 mm in [18], 20 mm in [19] and 18 mm in [20].

Regarding COLISTIN, the MIC amounted to 8.12 µg/mL in assay [15] and 0.4 µg/mL in [16].

Turning to `CC(=O)N1C(=O)C(O)(Cc2nc3sccn3c2[N+](=O)[O-])c2ccccc21` (stereo not drawn), in [13], the Activity amounted to 62.5 µg/mL. Also, the MIC in assay [16] (ATCC 6538, 24 h) came out at 31.2 µg/mL (≈ 83.8 µM); in assay [2] it was 14 µg/mL (≈ 37.6 µM). Moreover, the “diameter of the inhibition zone (DIZ)” value in [17], in [18], in assay [20], in assay [5], in [7] and in [8] was “inactive” each time. In addition, the results for the “diameter of the inhibition zone (DIZ)” value in assay [19] and in [6] were 16 mm and 14 mm, respectively.

For the compound `O=C1Nc2ccccc2C1(O)Cc1nc2sccn2c1[N+](=O)[O-]` (stereo not drawn), in assay [13], the Activity amounted to 500 µg/mL. Further, the MIC is 500 µg/mL (≈ 1510 µM) in assay [16] (ATCC 6538, 24 h); 500 µg/mL (≈ 1510 µM) in assay [1]; 62.5 µg/mL (≈ 189 µM) in assay [2]; more than 500 µg/mL in [3]; more than 500 µg/mL in assay [4]. Also, the “diameter of the inhibition zone (DIZ)” value in assay [17], in assay [20], in [5], in [7] and in [8] was “inactive” throughout. The figures for the “diameter of the inhibition zone (DIZ)” value in assay [18], in assay [19] and in [6] were 9 mm, 10 mm and 8 mm, respectively.

As to `CCOC(=O)/C=C/c1nc2sccn2c1[N+](=O)[O-]`, the MIC in assay [2] was found to be 15.6 µg/mL (≈ 58.4 µM). The “diameter of the inhibition zone (DIZ)” value in assay [17], in [18], in assay [19], in assay [20], in assay [5] and in assay [7] was “inactive” throughout. Moreover, in assay [8], the “diameter of the inhibition zone (DIZ)” value was “inactive”. The “diameter of the inhibition zone (DIZ)” value in assay [6] is reported as 21 mm.

For `CN1C(=O)C(O)(Cc2nc3sccn3c2[N+](=O)[O-])c2ccccc21` (stereo not drawn), in assay [2], the MIC came out at 125 µg/mL (≈ 363 µM). In addition, the “diameter of the inhibition zone (DIZ)” value in [17], in assay [18], in assay [19], in assay [20], in assay [5] and in assay [7] was “inactive” in each case. Moreover, the “diameter of the inhibition zone (DIZ)” value in assay [8] is “inactive”. The “diameter of the inhibition zone (DIZ)” value in assay [6] was found to be 12 mm.

Regarding `COC(=O)C(O)(Cc1nc2sccn2c1[N+](=O)[O-])C(F)(F)F` (stereo not drawn), in [2], the MIC was 3.9 µg/mL (≈ 11.5 µM). Besides, the “diameter of the inhibition zone (DIZ)” value in [17], in assay [18], in assay [19], in assay [20], in assay [5] and in assay [7] was “inactive” each time. The “diameter of the inhibition zone (DIZ)” value in [8] was “inactive”. Besides, the “diameter of the inhibition zone (DIZ)” value in assay [6] turned out to be 33 mm.
